In PMC8608967, “KDS2010, a Newly Developed Reversible MAO-B Inhibitor, as an Effective Therapeutic Candidate for Parkinson’s Disease” (Neurotherapeutics, 2021):

Assays:
[1] = test system: A53T mutant α-synuclein-overexpressing PD model rats; assay: A53T mutant α-synuclein rat model: TH staining; type: in vivo; details: 10 mg/kg/day for 15 days starting 3 weeks after virus injection
Excerpt: (§1) Throughout the study, confounders were not controlled.

[2] = Pharmacokinetic study in cynomolgus monkeys (N118029); type: in vivo, cynomolgus monkey (Macaca fascicularis); details: male, cynomolgus monkey, plasma, po
Experimental: All animals were at least 24 months old. […] Males and females were assigned to treatment groups in a stratified manner using the Pristima System based on most recent body weight. Clinical signs, including mortality, moribundity, general appearance, and behavioral changes, were recorded with date, time, and duration. Body weight was measured prior to the first KDS2010 dose. For oral administration, KDS2010 was dissolved in water. In total, 42 monkeys were administered KDS2010 and ultimately sacrificed for autopsy.
In the pharmacokinetic study (N118029), six male monkeys were assigned to 2 groups receiving either 10 or 30 mg/kg oral KDS2010. […] Blood samples were mixed gently, stored in a wet-ice cryo-rack, and centrifuged (approximately 13,200 rpm, 5 min, 4°C) to obtain plasma. The separated plasma was aliquoted into polypropylene tubes and stored frozen until analysis.
A non-compartmental analysis module in Phoenix® WinNonlin® (version 6.4) (Certara Inc., CA, USA) was used to calculate pharmacokinetic (PK) parameters. Systemic exposure to KDS2010 was calculated by applying the linear trapezoidal rule to the area under the plasma concentration–time curve from time zero to the last quantifiable time point (AUClast), and the maximum observed peak plasma concentration (Cmax) and the time to reach Cmax (Tmax) were determined based on the observed data.

[3] = target: T1, human recombinant MAO-A (hMAO-A) (Homo sapiens, UniProt P21397); details: ref Park, JH. et al. Science Advances. 5(3), eaav0136 (2019), read-out: Inhibition (IC50) MAO-A; cited from earlier work
T1 construct: purchased Sigma Aldrich
T1 sequence (P21397 1-527): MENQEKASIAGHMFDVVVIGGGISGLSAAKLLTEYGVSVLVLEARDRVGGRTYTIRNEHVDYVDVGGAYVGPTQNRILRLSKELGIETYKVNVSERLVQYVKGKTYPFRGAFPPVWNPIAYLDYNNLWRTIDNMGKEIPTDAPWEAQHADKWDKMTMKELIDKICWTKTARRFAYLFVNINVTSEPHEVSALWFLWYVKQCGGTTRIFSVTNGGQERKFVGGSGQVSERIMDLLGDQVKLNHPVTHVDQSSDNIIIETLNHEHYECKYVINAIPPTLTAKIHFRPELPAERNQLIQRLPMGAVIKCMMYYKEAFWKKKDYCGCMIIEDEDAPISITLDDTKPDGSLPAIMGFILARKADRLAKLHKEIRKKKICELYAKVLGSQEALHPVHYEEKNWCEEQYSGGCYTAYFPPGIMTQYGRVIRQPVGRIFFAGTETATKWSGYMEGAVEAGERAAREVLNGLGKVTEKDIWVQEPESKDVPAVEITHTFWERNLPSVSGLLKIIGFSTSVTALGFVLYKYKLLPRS

[4] = Oral toxicity studies in cynomolgus monkeys (N217019, G217013, G218027); type: in vivo, cynomolgus monkey (Macaca fascicularis); details: cynomolgus monkey, in vivo; cynomolgus monkeys, both sexes, 4-week repeated oral dosing; read-out: No Observed Adverse Effect Level (NOAEL)
Experimental: (§2) All non-human primate studies were conducted in the Good Laboratory Practice (GLP)-level laboratory of the Korea Institute of Toxicology (KIT, Jeollabuk-do, Korea) and approved by the KIT Institutional Animal Care and Use Committee. Cynomolgus monkeys (Macaca fascicularis) were obtained from the Nafovanny captive-breeding primate facility (Dong Nai Province, Vietnam) and housed individually in stainless cages (543 W × 715L × 818H in mm) during acclimation, pre-treatment, and dosing periods. All animals were at least 24 months old. The environment of the animal room was automatically controlled according to the Standard Operating Procedures of KIT (temperature: 20–29°C, relative humidity: 30–70%, light cycle: 12 h at 300–700 Lux, ventilation: 10–20 times/h, air pressure: negative). Males and females were assigned to treatment groups in a stratified manner using the Pristima System based on most recent body weight. Clinical signs, including mortality, moribundity, general appearance, and behavioral changes, were recorded with date, time, and duration. Body weight was measured prior to the first KDS2010 dose. For oral administration, KDS2010 was dissolved in water. In total, 42 monkeys were administered KDS2010 and ultimately sacrificed for autopsy. The four studies conducted on cynomolgus monkeys are summarized in Table 1 and described in greater detail below.
(§3) In the single-dose escalation study (N118029), each male and female monkey was administered oral KDS2010 at increasing doses of 25, 50, and 100 mg/kg/day once a week. Mortality and general symptoms were observed during the trial period. Body weight was also measured. Blood was collected for hematology, coagulation, and clinical chemistry tests pre-dose (0) and 8, 15, and 22 days post-dose. After administration of 100 mg/kg/day on day 22, an autopsy was performed to observe individual macroscopic findings.
(§4) In the repeated 2-week oral administration toxicity study (G217013) for 4-week dose range finding (DRF), monkeys were assigned to 4 groups of one male and one female. Each group was orally administered KDS2010 at 0, 25, 50, or 100 mg/kg/day once a day for 2 weeks. During the test period, general symptoms were monitored, weight and feed intake measured, and ophthalmological tests performed. Clinical pathological tests (hematology, coagulation, blood biochemistry, and urine tests) were also conducted. All animals were autopsied, during which individual macroscopic findings were recorded, organ weights measured, and samples obtained for histopathology.
(§5) In the repeated 4-week oral administration toxicity with 2-week recovery and toxicokinetic test (G218027), monkeys were assigned to 4 groups of 3 males and 3 females. Each group was orally administered KDS2010 at 0, 10, 20, or 40 mg/kg/day once a day for 4 weeks. Toxicity tests were conducted as described for study G217013. For toxicokinetic measurements, blood samples were collected pre-dose (time 0) and at 1, 2, 4, 6, 8, 10, and 24 h after oral administration on the first day (day 1) and the last day (week 4; day 28) of dosing.

[5] = test system: cynomolgus monkeys; assay: as above; type: in vivo, cynomolgus monkey (Macaca fascicularis)
Experimental: as §2, §3, §4, §5

[6] = test system: A53T mutant α-synuclein-overexpressing PD model rats; assay: A53T mutant α-synuclein rat model: stepping test and cylinder test; type: in vivo; details: 10 mg/kg/day for 15 days
Experimental: as §1
Motor dysfunction of A53T α-synuclein model rats was tested using the forelimb-use asymmetry test (cylinder test). Briefly, animals were placed in a transparent Plexiglas cylinder (20 cm in diameter and 30 cm in height) for 2 min to assess the frequency of ipsilesional and contralesional forelimb usage against the cylinder wall for supporting an upright body posture. The test score was calculated as the ratio of ipsilateral usage frequency to total ipsilateral plus contralateral usage frequency.

[7] = test system: post-stroke recovery; parameters: method as in PMID 32640227; details: long-term treatment accompanied by rehabilitation training; cited from earlier work
[8] = test system: MPTP-induced PD mouse model; assay: MPTP mouse model: TH (DAB) and Nissl staining of SNpc and striatum; details: MPTP mice; for TH optical density in the striatum / TH-positive cell number in the SNpc: vs MPTP plus vehicle
Experimental: Group allocation and outcome assessment, but not the conduct of experiments and data analysis, were performed in a blinded manner. Throughout the study, confounders were not controlled. An acclimation period of 7 days was allowed for animals to stabilize in a new environment before model induction. […] Treatment drugs were dissolved in 100 μL of water and total dose (in mg) was calculated according to individual body weight (in kg). […] An experiment was halted if body weight decreased by 20% or more after MPTP or 6-hydroxydopamine (6-OHDA) treatment.
The MPTP model was established using the acute regimen of four intraperitoneal (i.p.) injections of MPTP-HCl (M0896, Sigma Aldrich, 2 mg/mL in saline, 20 mg/kg for one injection) at 2-h intervals. All MPTP use and safety precautions were strictly followed as described [18].
Coronal sections for striatum and SNpc were prepared at 30-μm thickness and immunostained using a DAB staining kit (TL-060-QHD, Thermo, MA, USA). […] After washing in PBS 3 times, sections were incubated in Primary Antibody Amplifier Quanto (TA-060-QPB, Thermo) for 5 min, washed again in PBS, incubated in HRP Polymer Quanto for 1 h, washed 4 times in PBS, and dipped for 30 s in a 1:10 mixture of DAB + chromogen and DAB + substrate buffer (K3468, Dako, Denmark). Finally, sections were washed, immersed in mounting medium, and dried.
Every 6th section including the SN was stained with anti-TH and the number of TH-positive neurons counted under low magnification (× 10) from the rostral tip of the SNpc to the caudal end of the substantia nigra pars reticulate (SNpr). […] The total number of neurons per section was estimated according to the optical fractionator formula. The total number of SNpc neurons in a hemisphere was then obtained by multiplying the number counted using Stereo Investigator 11 by the slice interval (six).
Other 30-μm-thick coronal sections from the SNpc were Nissl stained to assess viable cell number. Briefly, slices were stained with 0.1% cresyl violet solution for 3 min, rinsed with distilled water, and placed in a chamber filled with 70% ethanol for 1 min. […] A series of bright field images were obtained using an Olympus microscope. The slices were classified according to AP coordinates and Nissl-positive neurons counted using the counting tool of ImageJ (NIH, MD, USA).

In the case of `C[C@H](NCc1ccc(-c2ccc(C(F)(F)F)cc2)cc1)C(N)=O` [Compound 18j], the “number of remaining TH-positive neurons in the injected SNpc” value [1] is reported as “increased”, the “striatal TH loss” value [1] is reported as “significantly reversed” and the AUC ([2]; 10 mg/kg) is reported as 30600 ± 422 ng·h/mL. The Cmax ([2]; 10 mg/kg) was 2230 ± 143 ng/mL, the AUC ([2]; 30 mg/kg) was 80800 ± 5370 ng·h/mL and the Cmax ([2]; 30 mg/kg) was 4850 ± 568 ng/mL. For the same compound, the IC50 [3] was > 100 µM, the NOAEL at 4 weeks [4] was 40 mg/kg/day and the “maximum dose determined in 2-week DRF study (G217013)” value ([5]; cynomolgus monkeys, 0, 25, 50, 100 mg/kg/day p.o. for 2 weeks) was 50 mg/kg/day. The “adverse effects in toxicity examinations” value ([5]; cynomolgus monkeys, 10, 20, 40 mg/kg/day p.o. for 4 weeks) was “no adverse effects were observed”, the “findings in single-dose escalation toxicity study (N217019)” value ([5]; cynomolgus monkeys, 25, 50 and 100 mg/kg p.o.) was “no general symptoms, clinical pathological, or gross organ pathology” and the “changes in body weight” value ([5]; cynomolgus monkeys, male and female, 10, 20, 40 mg/kg/day p.o. for 4 weeks) was “no significant changes”. The “cylinder test: asymmetric usage of forelimbs” value [6] was “alleviated”, the “stepping test: impaired stepping behavior of the contralateral forepaw” value [6] was “significantly alleviated” and the post-stroke recovery [7] was “dramatically improved”. For the same compound, the “MPTP-induced reduction in Nissl-positive neurons in SNpc” value ([8]; post-treatment) was “but not post-treatment”, the “TH optical density in the striatum” value ([8]; post-treatment) was “significantly increased” and the “TH-positive cell number in the SNpc” value ([8]; post-treatment) was “significantly increased”. The “MPTP-induced reduction in Nissl-positive neurons in SNpc” value ([8]; pre-treatment) was “partially prevented”, the “TH optical density in the striatum” value ([8]; pre-treatment) was “significantly increased” and the “TH-positive cell number in the SNpc” value ([8]; pre-treatment) was “significantly increased”.
